Where two headings read alike, the source gives them in different places.
Assays:
[1] = system: Henoch Schonlein Purpura; test: Example 2 case study: person with Henoch Schonlein Purpura; assay type: in vivo, human; conditions: before the combination; ibuprofen and diphenhydramine
Source text: Case Study: person with Henoch Schonlein Purpura The patient is a person originally seen and evaluated in London, England, Feb. […] […] The ibuprofen and diphenhydramine were discontinued.

[2] = system: influenza; conditions: 2009 H1N1 pandemic; cited from earlier work
[3] = cited from earlier work
[4] = cited from earlier work; for time to steady state level: montelukast
[5] = with warfarin, theophylline, digoxin, terfenadine, oral contraceptives, or prednisone; cited from earlier work
[6] = system: human rhinovirus; conditions: airway epithelial cells; cited from earlier work
[7] = system: eosinophil migration; conditions: cited from earlier work
[8] = system: IL-4, IL-6, and IL-8; conditions: cited from earlier work
[9] = system: histamine induced wheal and flare; conditions: cited from earlier work
[10] = cited from earlier work; remark: listed apart in the source
[11] = in vivo; cited from earlier work
[12] = target: H1 receptor (Homo sapiens, UniProt P35367); conditions: acidic pH (inflamed tissue), relative to first generation molecules, cited from earlier work
[13] = system: Churg-Strauss Syndrome (eosinophilic vasculitis); test: Example 1 case study: person with Churg-Strauss Syndrome; assay type: in vivo, human; conditions: 2010, patient history

Chain of H1 receptor (P35367 whole entry): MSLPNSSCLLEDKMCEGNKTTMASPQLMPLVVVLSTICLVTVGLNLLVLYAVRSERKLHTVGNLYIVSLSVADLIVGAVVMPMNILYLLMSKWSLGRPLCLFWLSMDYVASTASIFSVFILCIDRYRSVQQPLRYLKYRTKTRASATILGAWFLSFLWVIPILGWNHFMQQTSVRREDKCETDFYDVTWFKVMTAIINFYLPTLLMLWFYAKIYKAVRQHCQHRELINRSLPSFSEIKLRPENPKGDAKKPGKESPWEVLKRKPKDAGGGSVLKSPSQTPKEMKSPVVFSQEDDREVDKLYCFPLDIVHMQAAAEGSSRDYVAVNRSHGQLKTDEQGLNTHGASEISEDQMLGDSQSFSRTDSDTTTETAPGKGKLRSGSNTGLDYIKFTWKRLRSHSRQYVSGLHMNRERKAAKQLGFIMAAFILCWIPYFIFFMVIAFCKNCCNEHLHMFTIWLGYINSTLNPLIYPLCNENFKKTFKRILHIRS

## CC(C)Cc1ccc(C(C)C(=O)O)cc1 (centres unmarked) [ibuprofen]
[1]
  response of recurrent Henoch Schonlein Purpura: poorly responsive

## CN(C)CCOC(c1ccccc1)c1ccccc1 [diphenhydramine]
[1]
  response of recurrent Henoch Schonlein Purpura: poorly responsive

## CCOC(=O)C1=C[C@@H](OC(CC)CC)[C@H](NC(C)=O)[C@@H](N)C1 [oseltamivir]
[2]
  influenza related lower respiratory tract complications: did not appear to reduce

## CC(C)(O)c1ccccc1CC[C@@H](SCC1(CC(=O)O)CC1)c1cccc(/C=C/c2ccc3ccc(Cl)cc3n2)c1 [montelukast]
[3]; adult patients for 22 weeks
  doses administered without clinically important adverse experiences: up to 200 mg/day
[3]; short-term studies, patients for approximately one week
  doses administered without clinically important adverse experiences: up to 900 mg/day
[4]; IV 7 mg vs approved 10 mg oral tablet
  IV plasma concentration area under the curve profile versus oral tablet: comparable
[4]; in vivo
  linearity of pharmacokinetics: linear pharmacokinetics to 50 mg
  time to peak plasma concentration: 3 to 4 h
[4]
  time to steady state level: within two days
[4]; listed as Montelukast
  time to steady state level: less than two days
[4]; standard meal
  effect of a standard meal on oral bioavailability and Cmax: not affected
[5]
  drug interactions: no drug interactions

## O=C(O)COCCN1CCN([C@H](c2ccccc2)c2ccc(Cl)cc2)CC1 [levocetirizine]
[6]
  rhinovirus-induced ICAM-1 and cytokine expression and viral replication: inhibits
[7]
  eosinophil migration / quantity: decrease
[8]
  inflammatory mediators, IL-4, IL-6, and IL-8: decrease
[9]; histamine induced wheal and flare data
  potency among the five modern generation antihistamines: most potent
[9]; levocetirizine 5 mg per day vs fexofenadine 180 mg per day
  effectiveness versus fexofenadine: more effective than fexofenadine
[10]; higher doses
  principal side effect at higher doses: Sedation
[10]; human dosing safety studies
  doses safely administered in humans: up to 30 mg/day
[11]
  time to steady state level: 40 h
[12]
  enhanced receptor affinity over first generation mepyramine: up to 5 ×
[12]; listed as Levocetirizine
  enhanced receptor affinity over first generation mepyramine: 5 ×

## omalizumab
[13]
  trial for severe asthma: Unsuccessful

— US9669025B2 (INFLAMMATORY RESPONSE RESEARCH, INC., priority 2013, dated 2017)
